The text below walks through data of patent US20090088462A1, “Pharmaceutical Composition for Enhancing Adiponectin Production” (Daiichi Sankyo Company, Limited, priority 2005, published 2009).

Where a name gives a salt, the structure may show the parent alone.

In the experiment the test system is adiponectin. The experiment is described as follows: Comparative test for adiponectin production enhancing effect: plasma adiponectin concentration by radioimmunoassay. The class given is in vivo. As to conditions: female db/db mice, one week oral; Compound A 0.3 mg/kg vs B 3 mg/kg (P<0.001) and vs C 30 mg/kg (P<0.01), Tukey's multiple comparison test. On the procedure: Plasma glucose levels and plasma adiponectin concentrations were compared between each of the groups respectively. The plasma adiponectin concentration was measured using a radioimmunoassay kit (Mouse Adiponectin RIA Kit, Linco Research, Inc.). Plasma was diluted by 100 times using a buffer provided with the kit, and measurement was conducted using the diluted plasma (5 μL) (final dilution rate: 2000 times). The radioactivity was measured using a gamma counter, and adiponectin concentration was calculated from the measured radioactivity (measurement unit: μg/mL).

For `COc1ccc2nc(COc3ccc(CC4SC(=O)NC4=O)cc3)n(C)c2c1` (stereo not shown) [Compound A, 5-[4-(6-Methoxy-1-methyl-1H-benzimidazol-2-ylmethoxy)benzyl]thiazolidine-2,4-dione hydrochloride], the “plasma adiponectin concentration compared with Compound B and Compound C administration groups” value is “significant increasing effect”.
